Laboratory results published in patent US20240190888A1, “SPIRO-CONTAINING DERIVATIVE, AND PREPARATION METHOD THEREFOR AND USE THEREOF” (priority 2021, published 2024).

Tests used:
[1] = system: high spontaneous activity induced by MK-801; test: Inhibition of high spontaneous activity induced by MK-801 in mice; assay type: in vivo; details: male C57Bl/6J mice, compound p.o. 30 min before MK-801 0.3 mg/kg i.p.
Description: 3.1 Experimental Materials:
Compounds to be tested: compounds in the examples of the present application, self-made.
(§1) Experimental animals: 18-22 g male C57Bl/6J mice, purchased from Shanghai Slack Experimental Animal Co., Ltd.
3.2.1 Grouping of animals: before the start of the experiment, animals were randomly grouped according to body weight. 3.2.2 Animal adaptation: before the experiment, the mice were first adapted to the experimental environment for at least 1 hour. That is, the animals were transferred from the breeding room to the laboratory and moved freely in the cage.
Drug preparation: taking the compound to be tested, adding pure water and performing ultrasonication.
The animals were randomly divided into blank group, model group, and administration group according to body weight, 9 mice % group, and the detailed administration information is shown in the following table:
T-30 min oral administration of compound: compound to be tested or solvent (pure water) was administered orally by gavage, and put into test box (test box size length*width*height=27*27*40 cm) immediately after administration, recording the spontaneous activity of the mice within 30 minutes.
The blank control group was injected with normal saline.
3.2.4 Data Recording and Analysis.
(§2) The activities of these animals (movement distance in the test box) were automatically recorded by the camera, and analyzed with ANY MAZE software, and the ED50 values were calculated.

5-HT1A receptor = biological target: T1, 5-HT1A receptor (Homo sapiens, UniProt P08908); test: 5-HT1A receptor cAMP agonist test (HEK293 cell line stably expressing 5-HT1A receptor); assay type: cell-based; details: for EC50: cAMP agonist assay with forskolin, HEK293 cells stably expressing 5-HT1A; for 5-HT1A Max Act %: maximal activation rate relative to Serotonin positive control
T1 construct: expressed in transfected cells
T1 sequence (P08908 1-422): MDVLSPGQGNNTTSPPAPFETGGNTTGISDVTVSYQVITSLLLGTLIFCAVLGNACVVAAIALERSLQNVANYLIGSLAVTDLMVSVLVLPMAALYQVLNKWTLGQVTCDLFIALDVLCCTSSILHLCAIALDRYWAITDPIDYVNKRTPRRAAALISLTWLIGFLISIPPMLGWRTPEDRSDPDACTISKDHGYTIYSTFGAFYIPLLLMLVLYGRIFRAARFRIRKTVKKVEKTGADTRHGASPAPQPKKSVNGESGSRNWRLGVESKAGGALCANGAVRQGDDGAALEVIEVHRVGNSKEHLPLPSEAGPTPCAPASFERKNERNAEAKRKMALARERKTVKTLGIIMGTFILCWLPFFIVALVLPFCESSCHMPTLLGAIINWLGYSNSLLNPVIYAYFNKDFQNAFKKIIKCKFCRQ
Description: 2.1 Experimental Materials:
The cAMP detection kit was purchased from Cisbio; the HEK293 cell line stably expressing 5-HT1A receptor was constructed by Shanghai Shujing Biotechnology Co., Ltd.; Serotonin, Forskolin and IBMX were purchased from Sigma; ProxiPlate-384-well plates was purchased from PerkinElmer; HBSS was purchased from Thermo Fisher Scientific.
(§3) (1) Preparation of experimental buffer: 5×stimulation buffer was diluted to 1× with ddH2O, adding IBMX with a final concentration of 0.5 mM, mixing well for later use.
(2) The cultured cells were digested with trypsin, and the cell suspension was washed with HBSS buffer after the digestion was terminated, centrifuging to remove the culture medium at 200×g; the precipitate was resuspended with an appropriate amount of experimental buffer, taking 20 μL for counting with a cell counter, and diluting to 0.4×10^6 cells/mL.
(3) 5 μL cell suspension (2×10^3 cells per well) was added to ProxiPlate-384 well plate.
(4) The compound to be tested was diluted in the experimental buffer by gradient, and 5 μL was transferred to the reaction plate using Bravo, 5 μL experimental buffer was put in each negative control well, and 5 μL Serotonin (final concentration 10^−6 M) was put in each positive control well.
(5) Incubating at room temperature for 15 minutes.
(6) Forskolin (final concentration 1.5×10^−7M) was added to the reaction plate using TecanD300e picoliter micro-dosing system.
(7) Incubating at room temperature for 45 minutes.
(8) 10 μL detection reagent was added to the reaction plate, incubating at room temperature for 1 hour in dark.
(§4) Activation rate (activity %)=(negative control ratio-compound ratio)/(negative control ratio-positive control ratio)×100%
The EC50 values of the compounds were calculated using the four-parameter fitting model log(agouist)vs. response—Variable slope (four parameters) in Graph Pad Prism.

TAAR1 receptor = biological target: T2, TAAR1 receptor (Homo sapiens, UniProt Q96RJ0); test: TAAR1 receptor cAMP agonist test (HEK293 cell line stably expressing TAAR1 receptor); assay type: cell-based; details: for EC50: cAMP agonist assay, HEK293 cells stably expressing TAAR1; for TAAR1 Max Act %: maximal activation rate relative to PEA positive control
T2 construct: expressed in transfected cells
T2 sequence (Q96RJ0 1-339): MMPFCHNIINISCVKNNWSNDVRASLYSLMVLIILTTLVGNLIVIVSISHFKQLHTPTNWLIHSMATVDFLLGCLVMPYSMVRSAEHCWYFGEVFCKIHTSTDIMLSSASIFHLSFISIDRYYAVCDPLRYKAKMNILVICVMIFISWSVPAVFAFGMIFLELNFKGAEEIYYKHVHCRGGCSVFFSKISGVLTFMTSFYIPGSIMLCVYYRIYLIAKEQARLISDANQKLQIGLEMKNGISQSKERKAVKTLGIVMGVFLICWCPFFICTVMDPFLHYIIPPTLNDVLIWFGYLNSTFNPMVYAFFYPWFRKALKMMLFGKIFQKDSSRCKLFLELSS
Description: 1.1 Experimental Materials:
The cAMP detection lit was purchased from Cisbio; the […] cell line stably expressing TAAR1 receptor was constructed by Shanghai Singing Biotechnology Co., Ltd.; IBMX was purchased from Sigma; Phenethylamine (PEA); ProxiPlate-384 well plate was purchased from PerkinElmer. HBSS was purchased from Thermo Fisher Scientific Company.
as §3
(2) The frozen cells were thawed quickly in a 37° C. water bath, the cell suspension was washed with HBSS buffer, centrifuging at 200×g to remove the frozen storage solution, the pellet was resuspended with an appropriate amount of experimental buffer, taking 20 μL for counting with a cell counter, and diluting to 1.5×10^6 cells/mL.
(3) 5 μL of cell suspension (1.5×10^4 cells per well) was added to the ProxiPlate-384 well plate.
(4) The compound to be tested was diluted in the experimental buffer by gradient, and 5 μL was transferred to the reaction plate using Bravo, 5 μL experimental buffer was put in each negative control well, and 5 μL PEA (final concentration 10^−2M) was put in each positive control well.
(5) Incubating at 37° C. for 1 hour.
(6) 10 ELL of detection reagent was added to the reaction plate, incubating at room temperature for 1 hour in dark.
as §4
The EC50 values of the compounds were calculated using the four-parameter fitting model log(agonist)vs.response—Variable slope (four parameters) in GraphPad Prism.

[2] = system: high spontaneous activity induced by PCP; test: Inhibition of high spontaneous activity induced by PCP in mice; assay type: in vivo; details: male C57Bl/6J mice, compound p.o. 30 min before PCP 5 mg/kg i.p.
Excerpt: Compounds to be tested: compounds of the examples of the present application, self-made.
Phencyclidine hydrochloride (PCP): purchased from Shanghai Yuansi Standard Science Technology Co., Ltd., specification: 5 g.
as §1
That is, animals were transferred from the feeding room to the laboratory, and moved freely in the cage.
The animals were randomly divided into blank group, model group, and administration group according to body weight, 9 mice/group, and the detailed administration information is shown in the following table:
T0 min intraperitoneal injection of modeling drug: 30 minutes after compound administration, the mice were taken out, and administered with PCP (5 mg/kg) by intraperitoneal injection. The blank control group was injected with pure water.
as §2

In the case of CNC[C@@H]1OCC2(CC2)c2ccsc21 (single isomer, unassigned) [Example 8-S], the ED50 ([1]; Mus musculus, movement distance over 150 min, read-out: ED50 (half effective dose)) is reported as 0.36 mg/kg, the “MED (minimum effective dose)” value [1] is reported as 0.3 mg/kg and the EC50 (5-HT1A receptor) is reported as 903 nM. The “5-HT1A Max Act %” value (5-HT1A receptor) was 90.7%, the EC50 (TAAR1 receptor) was 704 nM and the “TAAR1 Max Act %” value (TAAR1 receptor) was 96.1%. The “MED (minimum effective dose)” value [2] was 0.3 mg/kg.
CNC[C@@H]1OCC2(CC2)c2sccc21 (single isomer, unassigned) [Example 9-R] was tested, and the “MED (minimum effective dose)” value [1] was 10 mg/kg and the “MED (minimum effective dose)” value [2] was 0.1 mg/kg.
CNC[C@H]1OCC2(CC2)c2sccc21 (single isomer, unassigned) [Example 9-S] was tested, and the EC50 (TAAR1 receptor) was 795 nM and the “TAAR1 Max Act %” value (TAAR1 receptor) was 95.8%.
With CNCC1OCC2(CCC2)c2ccsc21 (stereo not drawn) [Example 2, 1-(5′H,7′H-spiro[cyclobutane-1,4′-thieno[2,3c]pyran]-7′-yl)-N-methylmethylamine] the EC50 (5-HT1A receptor) was 257 nM and the “5-HT1A Max Act %” value (5-HT1A receptor) was 108.9%.
In the case of CNCC1OCC2(CC2)c2c(C)csc21 (stereo not drawn) [Example 7, 1-(3′-methyl-5′H,7′H-Spiro[cyclopropane-1,4′-thieno[2,3-c]pyran]-7′-yl)-N-methylmethylamine], the EC50 (5-HT1A receptor) is reported as 394 nM and the “5-HT1A Max Act %” value (5-HT1A receptor) is reported as 93.4%.
CNCC1OCC2(CC2)c2ccsc21 (stereo not drawn) [Example 8, 1-(5′H,7′H-Spiro[cyclopropane-1,4-thieno[2,3-c]pyran]-7′-yl)-N-methylmethylamine] was tested, and the EC50 (5-HT1A receptor) was 1540 nM, the “5-HT1A Max Act %” value (5-HT1A receptor) was 91.6% and the EC50 (TAAR1 receptor) was 1630 nM. For the same compound, the “TAAR1 Max Act %” value (TAAR1 receptor) was 96.6%.
For CNCC1OCC2(CC2)c2sccc21 (stereo not drawn) [Example 9, 1-(4′H,6′H-spiro[cyclopropane-1,7′-thieno[3,2-c]pyran]-4′-yl)-N-methylmethylamine], the EC50 (5-HT1A receptor) was 2440 nM, the “5-HT1A Max Act %” value (5-HT1A receptor) was 92.7% and the EC50 (TAAR1 receptor) was 1670 nM. For the same compound, the “TAAR1 Max Act %” value (TAAR1 receptor) was 95.5%.
In the case of [2H]C([2H])([2H])NCC1OCC2(CC2)c2ccsc21 (stereo not drawn) [Example 15, N-((5′H,7′H-Spiro[cyclopropane-1,4′-thieno[2,3-c]pyran]-7′-yl)methyl)methane-d3-amine], the EC50 (5-HT1A receptor) is reported as 2680 nM, the “5-HT1A Max Act %” value (5-HT1A receptor) is reported as 93.7% and the EC50 (TAAR1 receptor) is reported as 1730 nM. The “TAAR1 Max Act %” value (TAAR1 receptor) was 93.3%.
In the case of CCNCC1OCC2(CC2)c2ccsc21 (stereo not drawn) [Example 16, N-((5′H,7′H-spiro[cyclopropane-1,4′-thieno[2,3-c]pyran]-7′-yl)methyl)ethylamine], the EC50 (5-HT1A receptor) is reported as 1380 nM and the “5-HT1A Max Act %” value (5-HT1A receptor) is reported as 115.6%.
With c1cc2c(s1)C(CN1CCC1)OCC21CC1 (stereo not drawn) [Example 23, 1-((5′H,7′H-Spiro[cyclopropane-1,4′-thieno[2,3-c]pyran]-7′-yl)methyl)azetidine] the EC50 (5-HT1A receptor) was 5510 nM and the “5-HT1A Max Act %” value (5-HT1A receptor) was 75.5%.
With [2H]C([2H])([2H])NCC1OCC2(CC2)c2sccc21 (stereo not drawn) [Example 32, N-((4′,6′-dihydrospiro[cyclopropane-1,7′-thieno[3,2-c]pyran]-4′-yl)methyl)methyl-D3-amine] the EC50 (5-HT1A receptor) was 1880 nM, the “5-HT1A Max Act %” value (5-HT1A receptor) was 80.5% and the EC50 (TAAR1 receptor) was 1320 nM. For the same compound, the “TAAR1 Max Act %” value (TAAR1 receptor) was 97.7%.
[2H]C([2H])([2H])NC[C@@H]1OCC2(CC2)c2sccc21 [Example 32-R, (R)—N-((4′,6′-dihydrospiro[cyclopropane-1,7′-thieno[3,2-c]pyran]-4′-yl)methyl)methyl-D3-amine] was tested, and the EC50 (5-HT1A receptor) was 1670 nM and the “5-HT1A Max Act %” value (5-HT1A receptor) was 86.3%.
[2H]C([2H])([2H])NC[C@H]1OCC2(CC2)c2sccc21 [Example 32-S, (S)—N-((4′,6′-dihydrospiro[cyclopropane-1,7′-thieno[3,2-c]pyran]-4′-yl)methyl)methyl-D3-amine] was tested, and the EC50 (TAAR1 receptor) was 806 nM and the “TAAR1 Max Act %” value (TAAR1 receptor) was 97.1%.
